Data published in patent publication US20250345328A1, “METHODS OF TREATING A RAS RELATED DISEASE OR DISORDER” (Revolution Medicines, Inc., priority 2023, published 2025).

Legend:
[1] = tested on: human KRAS^G12C NSCLC NCI-H2122 xenograft tumors; assay: NCI-H2122 xenograft, Compound A plus RMC-6291 combination; format: in vivo; conditions: immune-deficient mice; repeated daily oral administration
Experimental: The antitumor activity of Compound A in combination with RMC-6291 was evaluated using immune-deficient mice bearing human KRAS^G12C NSCLC NCI-H2122 xenograft tumors.

[2] = tested on: KRAS^G12X VAF in ctDNA; assay: KRAS variant allele frequency in ctDNA (Guardant Health ctDNA test); format: in vivo, human
Description: Lines inside box plots indicate median values; whiskers indicate largest or smallest value (at most±1.5× the interquartile range). Circles indicate data points >1.5 times the interquartile range; KRAS^G12X VAF at Cycle 1 Day 1 (pre-treatment) to Cycle 2 Day 1 or Cycle 3 Day 1 (on-treatment) determined by Guardant Health ctDNA test. ctDNA, circulating tumor DNA; VAF, variant allele frequency.
Whole-blood samples are collected from all subjects to measure Compound A concentrations, circulating tumor deoxyribonucleic acid (ctDNA) and other biomarkers. Samples for pharmacodynamic assays collected in Cycle 1 and beyond. Paired pretreatment and on treatment fresh tumor samples can optionally be collected from any subject if consent is obtained and at the discretion of the treating physician. Optional collection of pre-study treatment fresh biopsy should be performed prior to C1D1 dosing. An optional on-study treatment biopsy can be obtained with subject consent and at the discretion of the treating physician. The primary purpose of the optional on-study treatment biopsies is to assess pharmacodynamic markers and previously acquired pre-study treatment markers of resistance. […]
Patients with NSCLC and PDAC evaluated for molecular responses were dosed at 20-300 mg QD. […]

[3] = tested on: multiple human cancer cell lines; assay: Growth suppression and apoptosis in cancer cell lines in vitro; format: cell-based
Description: (§1) As described herein, Compound A is a potent, orally (PO) bioavailable RAS(ON) multi-selective inhibitor, selective for the active guanosine-5′-triphosphate (GTP)-bound state (RAS(ON)) of both mutant and wild-type variants of the canonical RAS isoforms (KRAS, NRAS, and HRAS) over other members of the RAS superfamily and other cellular targets. […] Binding of Compound A to CypA results in an inhibitory complex that binds RAS(ON), forming a high-affinity tri-complex that suppresses RAS signaling by disrupting interactions with effectors.

[4] = tested on: KRAS^G12X PDAC; assay: Phase 1/1b study: tumor response per RECIST v1.1 in PDAC; format: in vivo, human
Experimental: FIG. 5 is a waterfall plot showing the best response in KRAS^G12X PDAC.
(§2) Subjects are assessed for response using Response Evaluation Criteria in Solid Tumors (version 1.1) (RECIST [v1.1]). All subjects with previous or current, known or suspected brain metastases must have a magnetic resonance imaging (MRI) of the brain (unless contraindicated) performed within 28 days prior to the first dose of Compound A (C1D1). Disease response for clinical management of subjects is assessed per RECIST (v1.1).

[5] = tested on: human xenograft models with KRAS^G12X mutations; assay: Human xenograft tumor models in mice; format: in vivo; conditions: for Tumor regressions in xenograft models: mice
Description: as §1
(§3) Dose levels greater than or equal to 80 mg achieved exposures that induced tumor regressions in human xenograft models with KRAS^G12X mutations in mice (FIG. 3).

[6] = Phase 1/1b study: steady-state blood PK; format: in vivo, human; conditions: PO QD
Description: FIG. 3 graphically depicts the mean steady-state blood PK profiles and individual steady-state blood AUC.
Whole-blood samples are collected from all subjects to measure Compound A concentrations, circulating tumor deoxyribonucleic acid (ctDNA) and other biomarkers. Samples for pharmacodynamic assays collected in Cycle 1 and beyond. Paired pretreatment and on treatment fresh tumor samples can optionally be collected from any subject if consent is obtained and at the discretion of the treating physician. Optional collection of pre-study treatment fresh biopsy should be performed prior to C1D1 dosing. An optional on-study treatment biopsy can be obtained with subject consent and at the discretion of the treating physician. The primary purpose of the optional on-study treatment biopsies is to assess pharmacodynamic markers and previously acquired pre-study treatment markers of resistance. Biopsy assessment with study intervention treatment over time may also help with better understanding of the shift in mutational profile with study treatment, as well as cellular clonality changes over time. Where tumor tissue allows, predictive biomarkers of response may be explored.
(§4) Compound A was administered PO QD at the following dose levels until disease progression or unacceptable toxicity: 10, 20, 40, 80, 120, 160, 220, 300, 400, and 500 mg. Progression to the next Cohort and dose level may stop if DLT is observed at a lower dose level. Other dose levels not specified but within the range listed above may also be permitted based on emergent safety and PK data.
as §3

[7] = Phase 1/1b study of Compound A: safety, treatment-related adverse events; format: in vivo, human
Experimental: This Example describes the study design of a Phase 1/1b study of Compound A in patients with advanced solid tumors harboring specific mutations in RAS with the first patient dosed in June 2022. There are 2 parts planned in this study: Part 1: Dose Escalation and Part 2: Dose Expansion. In the Dose Escalation Phase, safety/tolerability and pharmacokinetics (PK) are assessed, and one or more candidate recommended phase 2 dose and schedule (RP2DS) for further testing in the second part of the study is determined. Enrollment in the Dose Expansion Phase begins after determination of a candidate RP2DS. Part 2 of the study further evaluates the safety/tolerability, PK, and preliminary antitumor effects within specific histotypes. Dose Expansion/Dose Optimization cohorts include RAS-mutant advanced solid tumors with specific histotypes/genotypes (including, but not limited to, NSCLC, PDAC, CRC, melanoma, gynecological cancers, other solid tumors.
Safety assessments and procedures were performed. Real-time safety monitoring was performed to ensure that the protocol-specified dose modification guidelines are followed. In addition, C1 safety and available PK and pharmacodynamic data was reviewed and evaluated at each Compound A dose level/schedule to determine whether enrollment into the next higher dose-level cohort may proceed. A modified schedule can be evaluated in which Compound A may be administered more or less frequently than once daily (QD). The totality of the data from dose escalation cohorts was reviewed and one or more candidate RP2DS for expansion in Part 2 recommended.
as §4
As of Sep. 11, 2023, 131 patients received Compound A at dose levels from 10 to 400 mg QD. The majority of patients had pancreatic cancer, non-small cell lung cancer, or colorectal cancer. The most common (≥10% of patients) treatment-related adverse events (TRAEs) were rash and gastrointestinal (GI)-related toxicities that were all Grade 1 or 2 in severity. Most rashes were acneiform or maculopapular, consistent with known on-target rash presentation from other RAS pathway inhibitors. […] The most common GI-related toxicities were nausea, diarrhea, and vomiting that were manageable with standard supportive care. The median duration of treatment at the time of the data extraction was 2.27 months.

[8] = tested on: KRAS^G12V ovarian cancer; assay: Phase 1/1b study: tumor response in ovarian cancer case; format: in vivo, human; conditions: one patient; 10 mg QD, escalated to 40 mg QD at C7 and 80 mg QD at C10; at cycle 13
Experimental: as §2
person diagnosed with stage III ovarian cancer in 2004 and later with metastatic disease to the liver and peritoneum. The patient had received 2 prior therapies; Surgery; and carboplatin/paclitaxel. […] The patient was dose escalated to 40 mg QD at C7 and then to 80 mg QD at C10.

[9] = tested on: KRAS^G12X NSCLC; assay: Phase 1/1b study: tumor response per RECIST v1.1 in NSCLC; format: in vivo, human
Experimental: FIG. 4 is a waterfall plot showing the best response in KRAS^G12X NSCLC.
as §2

[10] = KRAS G12X PDAC, 80 mg QD to 400 mg QD, RECIST v1.1, FIG. 5
[11] = one patient, 80 mg QD, at cycle 5
[12] = Total (N = 131), 10 to 400 mg QD, as of Sep. 11, 2023
[13] = Total (N = 131), 10 to 400 mg QD, post-data extraction associated with biliary obstruction, reported as unrelated to Compound A
[14] = KRAS G12X NSCLC, 80 mg QD to 400 mg QD, RECIST v1.1, FIG. 4

## CCn1c(-c2cccnc2[C@H](C)OC)c2c3cc(ccc31)N1CCO[C@@H](C[C@H](NC(=O)[C@H](C(C)C)N(C)C(=O)C3(F)CCN(C(=O)C#CC(C)(C)N(C)C)CC3)C(=O)N3CCC[C@H](N3)C(=O)OCC(C)(C)C2)C1 [RMC-6291]
[1]
  Mean tumor regression: mean tumor regressions were not achieved

## CCn1c(-c2cc(N3CCN(C)CC3)cnc2[C@H](C)OC)c2c3cc(ccc31)-c1csc(n1)C[C@H](NC(=O)[C@H]1C[C@@H]1C)C(=O)N1CCC[C@H](N1)C(=O)OCC(C)(C)C2 [Compound A]
[2]; one patient with KRAS^G12V ovarian cancer, 10 mg QD, at C2D1
  Reduction in KRAS^G12V VAF: 60%
[2]; patients with NSCLC and PDAC dosed at 20-300 mg QD, FIG. 6
  Molecular response in ctDNA: reduction in ctDNA of the KRAS-mutated allele
[3]
  Effect on cancer cell lines in vitro: growth suppression and apoptosis
[4]; [10]
  Disease control rate: 87%
  Overall response rate: 20%
[4]; [11]
  Response, case report KRAS^G12D PDAC: confirmed partial response
[4]; one patient, 160 mg QD, at week 6
  Response, case report KRAS^G12R PDAC: confirmed partial response
[5]; 10 mg/kg QD
  Tumor regressions in xenograft models: induces tumor regressions in sensitive models
[5]; 25 mg/kg QD
  Tumor regressions in xenograft models: induces tumor regressions in the majority of models
[5]; human xenograft tumor models, particularly KRAS^G12X
  Anti-tumor activity in vivo: significant anti-tumor activity
[6]; blood
  Exposure in patients versus dose: dose-dependent increases in exposure
[6]; patients
  Accumulation in the blood following repeated daily dosing: minimal accumulation
[6]; patients, FIG. 3
  Dose levels that achieved exposures that induced tumor regressions in human xenograft models with KRAS^G12X mutations in mice: greater than or equal to 80 mg
[7]; 131 patients, 10 to 400 mg QD
  Dose dependence of rash: Rash frequency, but not severity, was dose-dependent
  Fatal TRAEs: No fatal TRAEs
  Severity of the most common (≥10% of patients) TRAEs (rash and GI-related toxicities): Grade 1 or 2
[7]; [12]
  ALT elevation TRAE, Any Grade: 8 (6) n(%)
  ALT elevation TRAE, maximum severity Grade 1: 6 (5) n(%)
  ALT elevation TRAE, maximum severity Grade 2: 1 (1) n(%)
  ALT elevation TRAE, maximum severity Grade 4: 0 n(%)
  AST elevation TRAE, Any Grade: 7 (5) n(%)
  AST elevation TRAE, maximum severity Grade 1: 6 (5) n(%)
  AST elevation TRAE, maximum severity Grade 2: 0 n(%)
  AST elevation TRAE, maximum severity Grade 4: 0 n(%)
  Diarrhea TRAE, Any Grade: 42 (32) n (%)
  Diarrhea TRAE, maximum severity Grade 1: 32 (24) n (%)
  Diarrhea TRAE, maximum severity Grade 2: 9 (7) n (%)
  Diarrhea TRAE, maximum severity Grade 3: 1 (1) n (%)
  Diarrhea TRAE, maximum severity Grade 4: 0 n (%)
  Electrocardiogram QT prolonged TRAE, Any Grade: 1 (1) n(%)
  Electrocardiogram QT prolonged TRAE, maximum severity Grade 1: 1 (1) n(%)
  Electrocardiogram QT prolonged TRAE, maximum severity Grade 2: 0 n(%)
  Electrocardiogram QT prolonged TRAE, maximum severity Grade 3: 0 n(%)
  Electrocardiogram QT prolonged TRAE, maximum severity Grade 4: 0 n(%)
  Fatigue TRAE, Any Grade: 16 (12) n (%)
  Fatigue TRAE, maximum severity Grade 1: 12 (9) n (%)
  Fatigue TRAE, maximum severity Grade 2: 4 (3) n (%)
  Fatigue TRAE, maximum severity Grade 3: 0 n (%)
  Fatigue TRAE, maximum severity Grade 4: 0 n (%)
  Nausea TRAE, Any Grade: 55 (42 n (%)
  Nausea TRAE, maximum severity Grade 1: 41 (31) n (%)
  Nausea TRAE, maximum severity Grade 2: 14 (11) n (%)
  Nausea TRAE, maximum severity Grade 3: 0 n (%)
  Nausea TRAE, maximum severity Grade 4: 0 n (%)
  Rash* TRAE, Any Grade: 92 (70) n (%)
  Rash* TRAE, maximum severity Grade 1: 57 (44) n (%)
  Rash* TRAE, maximum severity Grade 2: 29 (22) n (%)
  Rash* TRAE, maximum severity Grade 3: 6 (5) n (%)
  Rash* TRAE, maximum severity Grade 4: 0 n (%)
  Stomatitis TRAE, Any Grade: 21 (16) n (%)
  Stomatitis TRAE, maximum severity Grade 1: 10 (8) n (%)
  Stomatitis TRAE, maximum severity Grade 2: 9 (7) n (%)
  Stomatitis TRAE, maximum severity Grade 3: 2 (2) n (%)
  Stomatitis TRAE, maximum severity Grade 4: 0 n (%)
  TRAEs leading to dose reduction, Any Grade: 11 (8) n(%)
  TRAEs leading to dose reduction, maximum severity Grade 1: 0 n(%)
  TRAEs leading to dose reduction, maximum severity Grade 2: 9 (7) n(%)
  TRAEs leading to dose reduction, maximum severity Grade 3: 2 n(%)
  TRAEs leading to dose reduction, maximum severity Grade 4: 0 n(%)
  TRAEs leading to treatment discontinuation, Any Grade: 1 (1) n(%)
  TRAEs leading to treatment discontinuation, maximum severity Grade 1: 0 n(%)
  TRAEs leading to treatment discontinuation, maximum severity Grade 2: 0 n(%)
  TRAEs leading to treatment discontinuation, maximum severity Grade 3: 0 n(%)
  TRAEs leading to treatment discontinuation, maximum severity Grade 4: 1 (1) n(%)
  Vomiting TRAE, Any Grade: 36 (28) n (%)
  Vomiting TRAE, maximum severity Grade 1: 27 (21) n (%)
  Vomiting TRAE, maximum severity Grade 2: 9 (7) n (%)
  Vomiting TRAE, maximum severity Grade 3: 0 n (%)
  Vomiting TRAE, maximum severity Grade 4: 0 n (%)
[7]; [13]
  ALT elevation TRAE, maximum severity Grade 3: 1 (1)+ n(%)
  AST elevation TRAE, maximum severity Grade 3: 1 (1)+ n(%)
[7]; one PDAC (120 mg) due to PD, one NSCLC (200 mg) unknown cause reported as unrelated to Compound A
  Discontinuation of study treatment due to death: Two patients discontinued study treatment due to death
[7]; one patient with PDAC treated at 80 mg, at the site of an invasive tumor
  Grade 4 TRAE (leading to treatment discontinuation): large intestine perforation
[8]
  Response, case report KRAS^G12V ovarian cancer: confirmed partial response
[1]
  Mean tumor regression: mean tumor regressions were not achieved
[9]; [14]
  Disease control rate: 85%
  Overall response rate: 38%
[9]; [11]
  Response, case report KRAS^G12D NSCLC: confirmed partial response
[9]; one patient, 300 mg QD reduced to 200 mg QD due to fatigue, at week 6
  Response, case report KRAS^G12V NSCLC: confirmed complete response
[9]; one patient, 300 mg QD, within one week of start of treatment
  Clinical symptoms, case report KRAS^G12V NSCLC: clinical improvement in cough and dyspnea
